The assay relates to MV-4-11 cells. Description: Gene expression microarray analysis (Affymetrix PrimeView) and GSEA. It counts as cell-based, human. On the set-up: RFU PODN (11730768_x_at) / Fold change /veh PODN (11730768_x_at) / RFU LINC00158 (11744669_a_at) / Fold change /veh LINC00158 (11744669_a_at) / RFU DUSP10 (11751237_a_at) / Fold change /veh DUSP10 (11751237_a_at) / RFU ID3 (11757404_x_at) / Fold change /veh ID3 (11757404_x_at) / RFU PLEKHG5 (11737974_s_at) / Fold change /veh PLEKHG5 (11737974_s_at) / RFU LRRC4B (11730491_at) / Fold change /veh LRRC4B (11730491_at) / RFU GIMAP4 (11747438_a_at) / Fold change /veh GIMAP4 (11747438_a_at) / RFU KRT8 (11758183_x_at) / Fold change /veh KRT8 (11758183_x_at) / RFU CNN1 (11734310_a_at) / Fold change /veh CNN1 (11734310_a_at) / RFU VPS37D (11726825_at) / Fold change /veh VPS37D (11726825_at) / RFU C10orf10 (11716522_x_at) / Fold change /veh C10orf10 (11716522_x_at) / RFU KIR2DL2 /// KIR2DL4 /// KIR2DL5A /// KIR2DL5B /// KIR2DS1 /// KIR2DS2 /// KIR2DS3 /// KIR2DS4 /// KIR3DL3 /// KIR3DL3 /// KIR3DS1 (11738374_at) / Fold change /veh KIR2DL2 /// KIR2DL4 /// KIR2DL5A /// KIR2DL5B /// KIR2DS1 /// KIR2DS2 /// KIR2DS3 /// KIR2DS4 /// KIR3DL3 /// KIR3DL3 /// KIR3DS1 (11738374_at) / RFU C1QL1 (11718748_at) / Fold change /veh C1QL1 (11718748_at) / RFU TMPRSS4 (11747572_a_at) / Fold change /veh TMPRSS4 (11747572_a_at) / RFU HAMP (11756126_x_at) / Fold change /veh HAMP (11756126_x_at) / RFU RNFT2 (11725882_a_at) / Fold change /veh RNFT2 (11725882_a_at) / RFU NR4A2 (11747474_a_at) / Fold change /veh NR4A2 (11747474_a_at) / RFU ABCC12 (11746883_a_at) / Fold change /veh ABCC12 (11746883_a_at) / RFU TMEM136 (11760407_x_at) / Fold change /veh TMEM136 (11760407_x_at) / RFU CLDN22 /// WWC2 (11732394_at) / Fold change /veh CLDN22 /// WWC2 (11732394_at) / RFU HLA-DPB1 (11760878_x_at) / Fold change /veh HLA-DPB1 (11760878_x_at) / RFU SPINT1 (11716480_a_at) / Fold change /veh SPINT1 (11716480_a_at) / RFU GAP43 (11754022_s_at) / Fold change /veh GAP43 (11754022_s_at) / RFU A4GNT (11735810_at) / Fold change /veh A4GNT (11735810_at) / RFU PRB3 (11715151_x_at) / Fold change /veh PRB3 (11715151_x_at) / RFU TUBB4B (11761932_at) / Fold change /veh TUBB4B (11761932_at) / RFU CAPN14 (11732068_a_at) / Fold change /veh CAPN14 (11732068_a_at) / RFU TMCC2 (11721928_a_at) / Fold change /veh TMCC2 (11721928_a_at) / RFU IRGQ (11745062_a_at) / Fold change /veh IRGQ (11745062_a_at) / RFU FAM174B (11720279_a_at) / Fold change /veh FAM174B (11720279_a_at) / RFU TMPRSS4 (11748680_a_at) / Fold change /veh TMPRSS4 (11748680_a_at) / RFU FAM212B (11763350_a_at) / Fold change /veh FAM212B (11763350_a_at) / RFU PLEKHG5 (11743358_a_at) / Fold change /veh PLEKHG5 (11743358_a_at) / RFU ZSCAN30 (11745921_a_at) / Fold change /veh ZSCAN30 (11745921_a_at) / RFU CMKLR1 (11741424_a_at) / Fold change /veh CMKLR1 (11741424_a_at) / RFU LOC101060620 /// MAPK8IP1 (11723275_at) / Fold change /veh LOC101060620 /// MAPK8IP1 (11723275_at) / RFU SPTSSB (11747773_x_at) / Fold change /veh SPTSSB (11747773_x_at) / RFU PRSS12 (11739890_at) / Fold change /veh PRSS12 (11739890_at) / RFU BIN1 (11741810_x_at) / Fold change /veh BIN1 (11741810_x_at) / RFU WNT11 (11732464_a_at) / Fold change /veh WNT11 (11732464_a_at) / RFU C10orf10 (11716521_a_at) / Fold change /veh C10orf10 (11716521_a_at) / RFU C5orf56 (11738089_at) / Fold change /veh C5orf56 (11738089_at) / RFU CYB561 (11721691_x_at) / Fold change /veh CYB561 (11721691_x_at) / RFU ANKRD19P (11752326_a_at) / Fold change /veh ANKRD19P (11752326_a_at) / RFU OR2T12 /// OR2T33 /// OR2T8 (11738714_s_at) / Fold change /veh OR2T12 /// OR2T33 /// OR2T8 (11738714_s_at) / RFU VCAN (11748164_a_at) / Fold change /veh VCAN (11748164_a_at) / RFU JSRP1 (11732532_at) / Fold change /veh JSRP1 (11732532_at) / RFU KRTAP10-11 (11738290_x_at) / Fold change /veh KRTAP10-11 (11738290_x_at) / RFU MYO3A (11730013_a_at) / Fold change /veh MYO3A (11730013_a_at) / RFU EBF3 (11725865_a_at) / Fold change /veh EBF3 (11725865_a_at) / RFU CAMK2N1 (11719241_x_at) / Fold change /veh CAMK2N1 (11719241_x_at) / RFU C5orf56 (11738088_a_at) / Fold change /veh C5orf56 (11738088_a_at) / RFU OLFML3 (11715873_a_at) / Fold change /veh OLFML3 (11715873_a_at) / RFU LOC100653217 /// NTM (11731650_a_at) / Fold change /veh LOC100653217 /// NTM (11731650_a_at) / RFU MAPK11 (11762145_a_at) / Fold change /veh MAPK11 (11762145_a_at) / RFU FIZ1 (11724087_x_at) / Fold change /veh FIZ1 (11724087_x_at) / RFU OASL (11726364_x_at) / Fold change /veh OASL (11726364_x_at) / RFU SOX15 (11748057_x_at) / Fold change /veh SOX15 (11748057_x_at) / RFU CD79A (11719716_a_at) / Fold change /veh CD79A (11719716_a_at) / RFU HIST1H1D (11736915_at) / Fold change /veh HIST1H1D (11736915_at) / RFU CASKIN2 (11723855_a_at) / Fold change /veh CASKIN2 (11723855_a_at) / RFU LOC730098 (11760151_x_at) / Fold change /veh LOC730098 (11760151_x_at) / RFU OR4N2 (11742367_at) / Fold change /veh OR4N2 (11742367_at) / RFU PRRT2 (11749266_a_at) / Fold change /veh PRRT2 (11749266_a_at) / RFU SNX32 (11753110_a_at) / Fold change /veh SNX32 (11753110_a_at) / RFU CDHR5 (11726645_a_at) / Fold change /veh CDHR5 (11726645_a_at) / RFU RCAN1 (11760418_a_at) / Fold change /veh RCAN1 (11760418_a_at) / RFU FAM167A (11723789_a_at) / Fold change /veh FAM167A (11723789_a_at) / RFU FAM26E (11764081_at) / Fold change /veh FAM26E (11764081_at) / RFU ISYNA1 (11749810_s_at) / Fold change /veh ISYNA1 (11749810_s_at) / RFU ACY1 (11761880_at) / Fold change /veh ACY1 (11761880_at) / RFU 11764098_at / Fold change /veh 11764098_at / RFU SAMD14 (11745864_x_at) / Fold change /veh SAMD14 (11745864_x_at) / RFU NPB (11741838_a_at) / Fold change /veh NPB (11741838_a_at) / RFU TMPRSS6 (11731388_a_at) / Fold change /veh TMPRSS6 (11731388_a_at) / RFU KRTAP10-2 (11738614_at) / Fold change /veh KRTAP10-2 (11738614_at) / RFU ARHGAP8 /// PRR5-ARHGAP8 (11727945_x_at) / Fold change /veh ARHGAP8 /// PRR5-ARHGAP8 (11727945_x_at) / RFU KRTAP5-7 /// NADSYN1 (11734609_at) / Fold change /veh KRTAP5-7 /// NADSYN1 (11734609_at) / RFU RASL12 (11751679_a_at) / Fold change /veh RASL12 (11751679_a_at) / RFU CDKN2B (11736163_a_at) / Fold change /veh CDKN2B (11736163_a_at) / RFU PRF1 (11729649_at) / Fold change /veh PRF1 (11729649_at) / RFU, ZNF638 /// ZNF638-IT1 / Fold change vs veh, ZNF638 /// ZNF638-IT1 / RFU, PANK3 / Fold change vs veh, PANK3 / RFU, SH3YL1 / Fold change vs veh, SH3YL1 / RFU, ZEB2 / Fold change vs veh, ZEB2 / RFU, NRIP1 / Fold change vs veh, NRIP1 / RFU, PTTG1IP / Fold change vs veh, PTTG1IP / RFU, CAPN2 / Fold change vs veh, CAPN2 / RFU, MED14 / Fold change vs veh, MED14 / RFU, SNORA58 / Fold change vs veh, SNORA58 / RFU, C1orf63 / Fold change vs veh, C1orf63 / RFU, LRRFIP1 / Fold change vs veh, LRRFIP1 / RFU, NDUFAF7 / Fold change vs veh, NDUFAF7 / RFU, SLC12A2 / Fold change vs veh, SLC12A2 / RFU, IBTK / Fold change vs veh, IBTK / RFU, ESF1 / Fold change vs veh, ESF1 / Fold change vs veh, TMEM50B / RFU, TAOK1 / Fold change vs veh, TAOK1 / RFU, ACBD3 / Fold change vs veh, ACBD3 / RFU, TMA16 / Fold change vs veh, TMA16 / RFU, RWDD3 / Fold change vs veh, RWDD3 / RFU, BCAT1 / Fold change vs veh, BCAT1 / RFU, EDEM3 / Fold change vs veh, EDEM3 / RFU, TMEM33 / Fold change vs veh, TMEM33 / RFU, WDR75 / Fold change vs veh, WDR75 / RFU, AHCTF1 / Fold change vs veh, AHCTF1 / RFU, TFRC / Fold change vs veh, TFRC / RFU, ZDHHC17 / Fold change vs veh, ZDHHC17 / RFU, NOM1 / Fold change vs veh, NOM1 / RFU, ARL8B / Fold change vs veh, ARL8B / RFU, ZBTB11 / Fold change vs veh, ZBTB11 / RFU, TAMM41 / Fold change vs veh, TAMM41 / RFU, KIAA1704 /// LOC100996395 / Fold change vs veh, KIAA1704 /// LOC100996395 / RFU, ING1 / Fold change vs veh, ING1 / RFU, TRMT61B / Fold change vs veh, TRMT61B / RFU, FUBP3 / Fold change vs veh, FUBP3 / RFU, TP53 / Fold change vs veh, TP53 / RFU, TNKS2 / Fold change vs veh, TNKS2 / RFU, ZFP14 / Fold change vs veh, ZFP14 / RFU, ACTR2 / Fold change vs veh, ACTR2 / RFU, PPP3R1 / Fold change vs veh, PPP3R1 / RFU, PIK3R1 / Fold change vs veh, PIK3R1 / RFU, HNRNPA1 / Fold change vs veh, HNRNPA1 / RFU, RNF170 / Fold change vs veh, RNF170 / RFU, ZNF28 / Fold change vs veh, ZNF28 / RFU, RNGTT / Fold change vs veh, RNGTT / RFU, OGT / Fold change vs veh, OGT / RFU, BRD1 / Fold change vs veh, BRD1 / RFU, MARS / Fold change vs veh, MARS / RFU, ZNF655 / Fold change vs veh, ZNF655 / RFU, FAHD1 / Fold change vs veh, FAHD1 / RFU, BDP1 / Fold change vs veh, BDP1 / RFU, LRRCC1 / Fold change vs veh, LRRCC1 / RFU, ARID1A / Fold change vs veh, ARID1A / RFU, ZNF146 / Fold change vs veh, ZNF146 / RFU, ZNF330 / Fold change vs veh, ZNF330 / RFU, GPN3 / Fold change vs veh, GPN3 / RFU, C9orf123 / Fold change vs veh, C9orf123 / RFU, N4BP2L2 / Fold change vs veh, N4BP2L2 / RFU, ARFIP1 / Fold change vs veh, ARFIP1 / RFU, FAM179B / Fold change vs veh, FAM179B / RFU, BCL10 / Fold change vs veh, BCL10 / RFU, UHRF1BP1L / Fold change vs veh, UHRF1BP1L / RFU, BET1 / Fold change vs veh, BET1 / RFU, CNOT2 / Fold change vs veh, CNOT2 / RFU, ZNF268 / Fold change vs veh, ZNF268 / Fold change vs veh, ZNF507 / RFU, DGCR2 / Fold change vs veh, DGCR2 / RFU, WDSUB1 / Fold change vs veh, WDSUB1 / Fold change vs veh, HSP90B1 /// MIR3652 / RFU, ADSS / Fold change vs veh, ADSS / RFU, GK / Fold change vs veh, GK / RFU, ZNF148 / Fold change vs veh, ZNF148 / RFU, TAF9 / Fold change vs veh, TAF9 / RFU, SLC1A5 / Fold change vs veh, SLC1A5 / RFU, SLMO2 / Fold change vs veh, SLMO2 / RFU, ABCC4 / Fold change vs veh, ABCC4 / RFU, LOC101060439 /// RAP1B / Fold change vs veh, LOC101060439 /// RAP1B / RFU, RFX7 / Fold change vs veh, RFX7 / RFU, GTPBP10 / Fold change vs veh, GTPBP10 / RFU, CNEP1R1 / Fold change vs veh, CNEP1R1 / RFU, BIVM-ERCC5 /// ERCC5 / Fold change vs veh, BIVM-ERCC5 /// ERCC5 / RFU, ILF3 / Fold change vs veh, ILF3 / RFU 11762660_at / Fold change /veh 11762660_at / RFU VCAN (11757783_s_at) / Fold change /veh VCAN (11757783_s_at) / RFU DDX43 (11728927_at) / Fold change /veh DDX43 (11728927_at) / RFU KRT8 (11758188_x_at) / Fold change /veh KRT8 (11758188_x_at) / RFU NKD1 (11759106_at) / Fold change /veh NKD1 (11759106_at) / RFU SRD5A1 (11742802_a_at) / Fold change /veh SRD5A1 (11742802_a_at) / RFU TPSAB1 /// TPSB2 (11721975_s_at) / Fold change /veh TPSAB1 /// TPSB2 (11721975_s_at) / RFU GSTM3 (11746129_a_at) / Fold change /veh GSTM3 (11746129_a_at) / RFU IL23R (11737362_x_at) / Fold change /veh IL23R (11737362_x_at) / RFU TMEM51 (11727254_a_at) / Fold change /veh TMEM51 (11727254_a_at) / RFU PIWIL2 (11732686_x_at) / Fold change /veh PIWIL2 (11732686_x_at) / RFU ORM1 (11744905_x_at) / Fold change /veh ORM1 (11744905_x_at) / RFU CCDC152 (11743942_at) / Fold change /veh CCDC152 (11743942_at) / RFU ECM1 (11717891_a_at) / Fold change /veh ECM1 (11717891_a_at) / RFU IL23R (11748794_a_at) / Fold change /veh IL23R (11748794_a_at) / RFU TNFAIP8L3 (11732012_x_at) / Fold change /veh TNFAIP8L3 (11732012_x_at) / RFU MBOAT4 (11741988_at) / Fold change /veh MBOAT4 (11741988_at) / RFU 11764193_at / Fold change /veh 11764193_at / RFU TMEM53 (11763286_at) / Fold change /veh TMEM53 (11763286_at) / RFU MAGEB2 (11727129_at) / Fold change /veh MAGEB2 (11727129_at) / RFU TMEM200A (11744735_a_at) / Fold change /veh TMEM200A (11744735_a_at) / RFU CCDC152 (11751479_a_at) / Fold change /veh CCDC152 (11751479_a_at) / RFU FAM211A (11726209_a_at) / Fold change /veh FAM211A (11726209_a_at) / RFU RGS16 (11746705_a_at) / Fold change /veh RGS16 (11746705_a_at) / RFU VCAN (11755009_s_at) / Fold change /veh VCAN (11755009_s_at) / RFU RHOB (11743442_s_at) / Fold change /veh RHOB (11743442_s_at) / RFU RGS16 (11720943_a_at) / Fold change /veh RGS16 (11720943_a_at) / RFU RGS16 (11720944_at) / Fold change /veh RGS16 (11720944_at) / RFU, VPS4B / Fold change vs veh, VPS4B / RFU, CREB1 / Fold change vs veh, CREB1 / RFU, DNAJC13 / Fold change vs veh, DNAJC13 / RFU, GNAQ / Fold change vs veh, GNAQ / RFU, CDK5R1 / Fold change vs veh, CDK5R1 / RFU, ZRANB3 / Fold change vs veh, ZRANB3 / RFU, CUL4A / Fold change vs veh, CUL4A / RFU, CCNY / Fold change vs veh, CCNY / RFU, UFL1 / Fold change vs veh, UFL1 / RFU, COG3 / Fold change vs veh, COG3 / RFU, DIAPH2 / Fold change vs veh, DIAPH2 / RFU, SKA2 / Fold change vs veh, SKA2 / RFU, AFF3 / Fold change vs veh, AFF3 / RFU, LMF1 / Fold change vs veh, LMF1 / RFU, IPO11 / Fold change vs veh, IPO11 / RFU, DFFB / Fold change vs veh, DFFB / RFU, FOXP1 / Fold change vs veh, FOXP1 / RFU, CARD8 / Fold change vs veh, CARD8 / RFU, STRN3 / Fold change vs veh, STRN3 / RFU, ADK / Fold change vs veh, ADK / RFU, RASSF2 / Fold change vs veh, RASSF2 / RFU, WIPF1 / Fold change vs veh, WIPF1 / RFU, LARP1B / Fold change vs veh, LARP1B / RFU, RASA1 / Fold change vs veh, RASA1 / RFU, RB1 / Fold change vs veh, RB1 / RFU, PPFIA1 / Fold change vs veh, PPFIA1 / RFU, MAT2A / Fold change vs veh, MAT2A / RFU, CCT5 / Fold change vs veh, CCT5 / RFU, WDR92 / Fold change vs veh, WDR92 / RFU, CUX1 / Fold change vs veh, CUX1 / RFU, TTC7A / Fold change vs veh, TTC7A / RFU, TMEM135 / Fold change vs veh, TMEM135 / RFU, DEPTOR / Fold change vs veh, DEPTOR / RFU, CPM / Fold change vs veh, CPM / RFU, DNAJB6 / Fold change vs veh, DNAJB6 / RFU, CACNA2D3 / Fold change vs veh, CACNA2D3 / RFU, DTX4 / Fold change vs veh, DTX4 / RFU, TFCP2 / Fold change vs veh, TFCP2 / RFU, GMCL1 /// GMCL1P1 / Fold change vs veh, GMCL1 /// GMCL1P1 / RFU, AEBP2 / Fold change vs veh, AEBP2 / RFU, SNHG1 /// SNORD22 /// SNORD25 /// SNORD26 /// SNORD27 /// SNORD28 /// SNORD29 /// SNORD31 / Fold change vs veh, SNHG1 /// SNORD22 /// SNORD25 /// SNORD26 /// SNORD27 /// SNORD28 /// SNORD29 /// SNORD31 / Fold change (Aza/veh), C12orf56 (ProbeSet 11735607_a_at) / Fold change (ACY-1035/veh), C12orf56 (ProbeSet 11735607_a_at) / Fold change (Aza/veh), FGFR1OP (ProbeSet 11751329_s_at) / Fold change (ACY-1035/veh), FGFR1OP (ProbeSet 11751329_s_at) / Fold change (Aza/veh), VPS36 (ProbeSet 11739960_a_at) / Fold change (ACY-1035/veh), VPS36 (ProbeSet 11739960_a_at) / RFU SYPL1 (11715823_x_at) / Fold change /veh SYPL1 (11715823_x_at) / RFU IGFBP7 (11715501_s_at) / Fold change /veh IGFBP7 (11715501_s_at) / RFU REEP3 (11722064_at) / Fold change /veh REEP3 (11722064_at) / RFU IGLL1 (11728026_x_at) / Fold change /veh IGLL1 (11728026_x_at): dose or concentration left out as unconfirmed. The settings on record: ProbeSet 11755425_a_at; LIST B.

As for `Nc1ccc(-c2cccs2)cc1NC(=O)c1ccc2c(c1)cc(C1CC1)n2CCN1CCOCC1` [ACY-1035], the “RFU, FAM179B” value worked out at 77.88 RFU.

The values above are taken from article PMC5218480 (PLoS ONE, 2017).
